“Also recorded” adds a separate entry of the source. Marks after values point to notes of the source that are not given here.

Test [1] has as its target T1, Mtb Dxr (Mycobacterium tuberculosis, UniProt P9WNS1).
T1 sequence (P9WNS1 1-413): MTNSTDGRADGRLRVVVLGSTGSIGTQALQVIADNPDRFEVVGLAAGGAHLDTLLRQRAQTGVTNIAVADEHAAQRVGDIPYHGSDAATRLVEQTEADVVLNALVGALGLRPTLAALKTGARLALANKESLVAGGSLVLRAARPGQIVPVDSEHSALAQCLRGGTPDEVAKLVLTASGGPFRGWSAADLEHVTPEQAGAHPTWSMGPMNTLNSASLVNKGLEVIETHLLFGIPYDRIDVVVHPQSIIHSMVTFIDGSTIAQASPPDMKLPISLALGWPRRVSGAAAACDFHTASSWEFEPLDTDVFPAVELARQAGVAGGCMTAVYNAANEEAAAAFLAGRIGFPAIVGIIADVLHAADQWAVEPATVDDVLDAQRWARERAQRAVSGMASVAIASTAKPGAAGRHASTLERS
Type of test: biochemical.

For test [2], the target named is Yp Dxr (Yersinia pestis, UniProt Q8ZH62). Type of test: biochemical. To be noted: for IC50: read-out: Yp Dxr IC50.
For test [3], the system named is M. tuberculosis H37Rv. Nature of the test: microbe, parasite or virus in culture. It is filed as cell-based, Mycobacterium tuberculosis.

Chain of Yp Dxr (Q8ZH62 whole entry, looked up): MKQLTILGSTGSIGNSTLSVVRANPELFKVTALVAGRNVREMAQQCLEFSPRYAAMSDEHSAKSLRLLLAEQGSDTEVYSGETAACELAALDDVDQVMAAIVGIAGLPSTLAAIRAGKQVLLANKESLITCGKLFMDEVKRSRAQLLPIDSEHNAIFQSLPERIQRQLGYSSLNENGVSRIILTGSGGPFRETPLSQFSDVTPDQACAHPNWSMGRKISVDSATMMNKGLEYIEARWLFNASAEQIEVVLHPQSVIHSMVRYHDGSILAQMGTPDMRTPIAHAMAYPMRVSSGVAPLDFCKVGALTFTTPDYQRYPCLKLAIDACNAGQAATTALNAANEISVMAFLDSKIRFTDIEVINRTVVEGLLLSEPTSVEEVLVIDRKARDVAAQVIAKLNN

As to `CCCCC(=O)N(O)CCCP(=O)([O-])O.[Na+]` [Compound 8a, Sodium hydrogen-3-(N-hydroxypentanamido)propyl phosphonate], the “inhibition of Mtb Dxr (in words)” value in test [1] is given as “greatest inhibition”.

As for `CCCCCCC(=O)N(O)CCCP(=O)([O-])O.[Na+]` [Compound 8b, Sodium hydrogen-3-(N-hydroxyheptanamido)propyl phosphonate], in test [1], the “inhibition of Mtb Dxr (in words)” value was “inhibited; also recorded: greatest inhibition” and the “percent remaining enzyme activity at 100 µM (Mtb Dxr)” value is “(43) ^* percent”. Further, in test [2], the “inhibition of Yp Dxr (in words)” value was “inhibited; also recorded: most active” and the “percent remaining enzyme activity at 100 µM (Yp Dxr)” value is listed as “(27) percent”.

On to `O=C(CCC1CCCCC1)N(O)CCCP(=O)([O-])O.[Na+]` [Compound 8d, Sodium hydrogen-3-(3-cyclohexyl-N-hydroxypropanamido)propyl phosphonate], for which, in test [3], the “M. tuberculosis MIC” value is recorded as >200 (25) µg/mL.

Take `Cc1ccc(C(=O)N(O)CCCP(=O)([O-])O)cc1.[Na+]` [Compound 8f, Sodium hydrogen-3-(N-hydroxy-4-methylbenzamido)propyl phosphonate]: the “percent remaining enzyme activity at 100 µM (Mtb Dxr)” value in test [1] is reported as “(74) percent”. In test [2], the “inhibition of Yp Dxr (in words)” value was “most active”; the “selectivity between Dxr homologs (Yp versus Mtb)” value (“selectivity between Dxr homologs” below) is on record as “significantly more potent against Yp Dxr”; the IC50 (in general, the concentration needed to halve the response being measured) came out at 16 µM.

Take `O=C(COc1ccc(Cl)cc1)N(O)CCCP(=O)([O-])O.[Na+]` [Compound 8l, Sodium hydrogen-3-(2-(4-chlorophenoxy)-N-hydroxyacetamido)propyl phosphonate]: the “M. tuberculosis MIC” value in test [3] was >200 (25) µg/mL.

Take `O=C(N(O)CCCP(=O)([O-])O)N(c1ccccc1)c1ccccc1.[Na+]` [Compound 8n, Sodium hydrogen-3-(1-hydroxy-3,3-diphenylureido)propyl phosphonate]: in test [1], the “inhibition of Mtb Dxr (in words)” value is “ineffective”. Also, the “inhibition of Yp Dxr (in words)” value in test [2] is reported as “ineffective”.

With `CC(=O)N(CCCP(=O)([O-])O)OC(C)c1ccccc1.[Na+]` (stereo not drawn) [Compound 16e, Sodium Hydrogen 3-(N-(1-phenylethoxy)acetamido)propyl phosphonate], in test [1], the “inhibition of Mtb Dxr (in words)” value is on record as “greatest inhibition” and the “percent remaining enzyme activity at 100 µM (Mtb Dxr)” value is “(38.1) percent”. Besides, in test [2], the “inhibition of Yp Dxr (in words)” value was “most active” and the “percent remaining enzyme activity at 100 µM (Yp Dxr)” value was “(19) percent”.

On to `CC(=O)N(CCCP(=O)([O-])O)OCCc1ccc(O)cc1.[Na+]` [Compound 16g, Sodium Hydrogen 3-(N-(4-hydroxyphenethoxy)acetamido)propyl phosphonate], for which the “percent remaining enzyme activity at 100 µM (Mtb Dxr)” value in test [1] is “(59) percent”. Further, in test [2], the “inhibition of Yp Dxr (in words)” value was “most active”, the “percent remaining enzyme activity at 100 µM (Yp Dxr)” value was “(22) percent” and the “selectivity between Dxr homologs” value was “same trend”.

In the case of `CC(=O)N(CCCP(=O)([O-])O)OCCCCc1ccccc1.[Na+]` [Compound 16h, Sodium Hydrogen 3-(N-(4-phenylbutoxy)acetamido)propyl phosphonate], the “M. tuberculosis MIC” value in test [3] is not below 200 µg/mL.

Consider `CC(=O)N(CCCP(=O)([O-])O)OCc1cccc2ccccc12.[Na+]` [Compound 16i, Sodium Hydrogen 3-(N-(naphthalen-1-ylmethoxy)acetamido)propyl phosphonate], for which, in test [1], the “inhibition of Mtb Dxr (in words)” value is given as “greatest inhibition” and the “percent remaining enzyme activity at 100 µM (Mtb Dxr)” value is listed as “(29) percent”. In test [2], the “inhibition of Yp Dxr (in words)” value is given as “most active”, the “selectivity between Dxr homologs” value is given as “more potent against Yp Dxr” and the IC50 was 22.4 µM.

`CC(=O)N(CCCP(=O)([O-])O)OCc1ccc(-c2ccc(C(F)(F)F)cc2)cc1.[Na+]` [Compound 16r, Sodium Hydrogen 3-(N-((4'-(trifluoromethyl)-[1,1'-biphenyl]-4-yl)methoxy)acetamido)propyl phosphonate]: the “percent remaining enzyme activity at 100 µM (Mtb Dxr)” value in test [1] was “(70) percent”. Besides, in test [2], the “inhibition of Yp Dxr (in words)” value is “most active” and the “percent remaining enzyme activity at 100 µM (Yp Dxr)” value is “(19) percent”.

Values taken from PMC5266543 (ACS infectious diseases, 2016).
